# Columns and labels:
# Experiment in all cases: Test E preemergence
# nightshade = format: in vivo, Solanum ptycanthum; conditions: for Nightshade plant response rating: scale 0 to 100 (0 no effect, 100 complete control)
# Excerpt: (§1) Seeds of plant species selected from corn (Zea mays), soybean (Glycine max), velvetleaf (Abutilon theophrasti), lambsquarters (Chenopodium album), wild poinsettia (Euphorbia heterophylla), palmer pigweed (Amaranthus palmeri), waterhemp (common waterhemp, Amaranthus rudis), surinam grass (Brachiaria decumbens), large (Lg) crabgrass (Digitaria sanguinalis), Brazilian crabgrass (Digitaria horizontalis), fall panicum (Panicum dichotomiflorum), giant foxtail (Setaria faberii), green foxtail (Setaria viridis), goosegrass (Eleusine indica), johnsongrass (Sorghum halepense), ragweed (common ragweed, Ambrosia elatior), barnyardgrass (Echinochloa crus-galli), sandbur (southern sandbur, Cenchrus echinatus), arrowleaf sida (Sida rhombifolia), Italian ryegrass (Lolium multiflorum), dayflower (Virginia (VA) dayflower, Commelina virginica), field bindweed (Convolvulus arvensis), morningglory (Ipomoea coccinea), nightshade (eastern black nightshade, Solanum ptycanthum), kochia (Kochia scoparia), yellow nutsedge (Cyperus esculentus), cocklebur (common cocklebur, Xanthium strumarium), smartweed (ladysthumb smartweed, and hairy beggarticks (Bidens pilosa), were planted into a silt loam soil and treated preemergence with test chemicals formulated in a non-phytotoxic solvent mixture which included a surfactant.
# (§2) At the same time, plants from these crop and weed species and also horseweed (Canada horseweed, Conyza canadensis), waterhemp_RES1, (ALS & Triazine resistant common waterhemp, Amaranthus rudis), and waterhemp_RES2, (ALS & HPPD resistant common waterhemp, Amaranthus rudis) were planted in pots containing Redi-Earth® planting medium (Scotts Company, 14111 Scottslawn Road, Marysville, Ohio 43041) comprising spaghnum peat moss, vermiculite, wetting agent and starter nutrients were treated with postemergence applications of test chemicals formulated in the same manner. Plants ranged in height from 2 to 18 cm for postemergence treatments (1- to 4-leaf stage). Treated plants and controls were maintained in a greenhouse for 14 to 21 days, after which time all species were compared to controls and visually evaluated. Plant response ratings, summarized in Table E, are based on a scale of 0 to 100 where 0 is no effect and 100 is complete control. A dash (-) response means no test result.
# velvetleaf = format: in vivo, Abutilon theophrasti; conditions: for Velvetleaf plant response rating: scale 0 to 100 (0 no effect, 100 complete control)
# Outline: (§3)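 Response was scored visually on a 0-100 scale (100 = complete control) versus controls after 14 to 21 days in the greenhouse. Test chemicals, formulated with surfactant in a non-phytotoxic solvent mixture, had been applied preemergence to seeds in silt loam soil or postemergence to 1- to 4-leaf plants in potting medium.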
# soybean = format: in vivo, Glycine max; conditions: for Soybean plant response rating: scale 0 to 100 (0 no effect, 100 complete control)
# Excerpt: as §1, §2
# ragweed = format: in vivo, Ambrosia elatior; conditions: for Ragweed plant response rating: scale 0 to 100 (0 no effect, 100 complete control)
# Outline: as §3
# large (Lg) crabgrass = format: in vivo, Digitaria sanguinalis; conditions: for Crabgrass, Large plant response rating: scale 0 to 100 (0 no effect, 100 complete control)
# Excerpt: as §1, §2
# barnyardgrass = format: in vivo, Echinochloa crus-galli; conditions: for Barnyardgrass plant response rating: scale 0 to 100 (0 no effect, 100 complete control); for Plant response rating, Barnyardgrass: scale 0 to 100, 0 no effect, 100 complete control
# Excerpt: as §1, §2
# palmer pigweed = format: in vivo, Amaranthus palmeri; conditions: for Pigweed, Palmer plant response rating: scale 0 to 100 (0 no effect, 100 complete control)
# Outline: as §3
# corn = format: in vivo, Zea mays; conditions: for Corn plant response rating: scale 0 to 100 (0 no effect, 100 complete control)
# Excerpt: as §1, §2
# morningglory = format: in vivo, Ipomoea coccinea; conditions: for Morningglory plant response rating: scale 0 to 100 (0 no effect, 100 complete control)
# Outline: as §3
# dayflower = format: in vivo, Commelina virginica; conditions: for Dayflower, VA plant response rating: scale 0 to 100 (0 no effect, 100 complete control)
# Outline: as §3
# fall panicum = format: in vivo, Panicum dichotomiflorum; conditions: for Panicum, Fall plant response rating: scale 0 to 100 (0 no effect, 100 complete control)
# Excerpt: as §1, §2
# [1] = 125 g ai/ha, scale 0 to 100, 0 no effect, 100 complete control
smiles,measurement,setting,value
N#Cc1cnn(-c2c(C#N)cccc2Oc2ncc(F)cn2)c1 [Compound 111],Nightshade plant response rating,nightshade; 16 g ai/ha,65
same,Nightshade plant response rating,nightshade; 31 g ai/ha,50
same,Nightshade plant response rating,nightshade; 62 g ai/ha,80
same,"Plant response rating, Nightshade",nightshade; [1],95
same,Velvetleaf plant response rating,velvetleaf; 16 g ai/ha,5
same,Velvetleaf plant response rating,velvetleaf; 31 g ai/ha,10
same,Velvetleaf plant response rating,velvetleaf; 62 g ai/ha,60
same,"Plant response rating, Velvetleaf",velvetleaf; [1],75
same,Soybean plant response rating,soybean; 16 g ai/ha,0
same,Soybean plant response rating,soybean; 31 g ai/ha,20
same,Soybean plant response rating,soybean; 62 g ai/ha,40
same,"Plant response rating, Soybean",soybean; [1],70
same,Ragweed plant response rating,ragweed; 16 g ai/ha,25
same,Ragweed plant response rating,ragweed; 31 g ai/ha,50
same,Ragweed plant response rating,ragweed; 62 g ai/ha,70
same,"Plant response rating, Ragweed",ragweed; [1],90
same,"Crabgrass, Large plant response rating",large (Lg) crabgrass; 16 g ai/ha,15
same,"Crabgrass, Large plant response rating",large (Lg) crabgrass; 31 g ai/ha,35
same,"Crabgrass, Large plant response rating",large (Lg) crabgrass; 62 g ai/ha,90
same,"Plant response rating, Crabgrass, Large",large (Lg) crabgrass; [1],100
same,Barnyardgrass plant response rating,"barnyardgrass; 16 g ai/ha, preemergence",0
same,Barnyardgrass plant response rating,"barnyardgrass; 31 g ai/ha, preemergence",0
same,"Plant response rating, Barnyardgrass","barnyardgrass; Preemergence, 62 g ai/ha",0
same,"Plant response rating, Barnyardgrass","barnyardgrass; preemergence, 125 g ai/ha",35
same,"Pigweed, Palmer plant response rating",palmer pigweed; 16 g ai/ha,10
same,"Pigweed, Palmer plant response rating",palmer pigweed; 31 g ai/ha,20
same,"Pigweed, Palmer plant response rating",palmer pigweed; 62 g ai/ha,100
same,"Plant response rating, Pigweed, Palmer",palmer pigweed; [1],100
same,Corn plant response rating,corn; 16 g ai/ha,0
same,Corn plant response rating,corn; 31 g ai/ha,0
same,Corn plant response rating,corn; 62 g ai/ha,0
same,"Plant response rating, Corn",corn; [1],15
same,Morningglory plant response rating,morningglory; 16 g ai/ha,20
same,Morningglory plant response rating,morningglory; 31 g ai/ha,35
same,Morningglory plant response rating,morningglory; 62 g ai/ha,75
same,"Plant response rating, Morningglory",morningglory; [1],75
same,"Dayflower, VA plant response rating",dayflower; 16 g ai/ha,0
same,"Dayflower, VA plant response rating",dayflower; 31 g ai/ha,0
same,"Dayflower, VA plant response rating",dayflower; 62 g ai/ha,20
same,"Plant response rating, Dayflower, VA",dayflower; [1],20
same,"Panicum, Fall plant response rating",fall panicum; 16 g ai/ha,0
same,"Panicum, Fall plant response rating",fall panicum; 31 g ai/ha,5
same,"Panicum, Fall plant response rating",fall panicum; 62 g ai/ha,80
same,"Plant response rating, Panicum, Fall",fall panicum; [1],100

# Source: patent publication US9695155B2, “Herbicidal substituted pyrimidinyloxy benzene compounds” (E. I. DU PONT DE NEMOURS AND COMPANY, priority 2013, dated 2017)
